Data on 26 compounds can be found in patent US20230310424A1, “METHODS AND MATERIALS FOR INCREASING NICOTINAMIDE PHOSPHORIBOSYL TRANSFERASE ACTIVITY” (University of Pittsburgh - Of the Commonwealth System of …, priority 2020, published 2023).

The test system of the assay is NAD^+ levels in cells. Put plainly: Assay for Total NADH and NAD+ Measurements in Cells. In kind it is cell-based. The conditions noted are these: cells incubated overnight with test compound; 100 percent = no change vs untreated control cells; cell type and concentration not given. As for the experimental part:
2,000 cells/well and, at the same time, test compounds dissolved in media at the desired concentration were added to each well. The treated cells were incubated overnight in CO2 incubator. The cells were washed 6 times with PBS with 1 mM CaCl2 and 1 mM MgCl2. In the last wash, 10 μL of PBS with 1 mM CaCl2 and 1 mM MgCl2 per well were left in each well. Immediately thereafter, 10 μL 0.4% dodecyltrimethyl-ammonium bromide (DTAB) in phosphate buffer pH 8.0 as added, and the plates were shaked at 1000 rpm for 5 minutes. 60 μL reaction mix was added, and fluorescence at Ex/Em 530/585 was immediately monitored. A linear increase should be achieved with 8 cycles every 92 seconds, 10 number of flashes/well/cycle. The reaction mix was prepared per the following table, respecting the amount and order in which each component was added:
A percentage of 100 percent would indicate no increase or decrease in NAD^+ levels as compared to that measured for untreated control cells, while a percentage of 125 percent would indicate an increase in NAD^+ levels of 25 percent as compared to that measured for untreated control cells.

As to `CN1CCN(C(=O)c2ccc3nc(C(F)(F)F)c(-c4cccnc4)nc3c2)CC1` [BC19105], the “A: increase in NAD^+ levels in cells in response to the test compound, as the percent of NAD^+ levels compared to that in the absence of the test compound” value is listed as 105%.
Take `CN1CCN(C(=O)c2ccc3nc(-c4cccs4)c(-c4ccc(F)cc4)nc3c2)CC1` [BC19109]: the “A: increase in NAD^+ levels in cells in response to the test compound, as the percent of NAD^+ levels compared to that in the absence of the test compound” value is listed as 111%.
Next, `CN(C)CCNC(=O)c1cnc2nc(-c3ccc(F)cc3)c(-c3ccc(F)cc3)nc2c1` [BC20201]: 133%; `Fc1ccc(-c2nc3ccc(-c4nnn[nH]4)cc3nc2-c2ccc(F)cc2)cc1` [BC19144]: 107%; `Fc1ccc(-c2nc3cc(-c4nnn[nH]4)ccc3nc2-c2cccs2)cc1` [BC19186]: 105%.
Next, `CN1CCN(C(=O)c2ccc3nc(-c4ccc(F)cc4)c(C(F)(F)F)nc3c2)CC1` [BC19110]: 105%; `CN(C)c1cccc(-c2nc3ccc(C(=O)NCCO)cc3nc2-c2cccc(N(C)C)c2)c1` [BC19502]: 115%; `CN(C)c1cccc(-c2nc3ccc(C(=O)O)cc3nc2-c2cccc(N(C)C)c2)c1` [BC19500]: 107%.
Next, `C#CCNC(=O)c1cnc2nc(-c3ccc(F)cc3)c(-c3ccc(F)cc3)nc2c1` [BC20257]: 130%; `CNC(=O)c1ccc2nc(-c3cccs3)c(-c3ccc(F)cc3)nc2c1` [BC19119]: 112%; `NC(=O)c1ccc2nc(-c3ccc(F)cc3)c(-c3cccs3)nc2c1` [BC19187]: 113%.
In the case of `CN1CCN(C(=O)c2ccc3nc(C(F)(F)F)c(-c4ccncc4)nc3c2)CC1` [BC19149], the “A: increase in NAD^+ levels in cells in response to the test compound, as the percent of NAD^+ levels compared to that in the absence of the test compound” value was 106%.
As for `O=C(O)c1ccc2nc(-c3ccc(F)cc3)c(-c3cccs3)nc2c1` [BC19156], the “A: increase in NAD^+ levels in cells in response to the test compound, as the percent of NAD^+ levels compared to that in the absence of the test compound” value worked out at 105%.
As for `C#CCNC(=O)c1ccc2nc(-c3cccc(NC(=O)CN(C)C)c3)c(-c3cccc(NC(=O)CN(C)C)c3)nc2c1` [BC20287], the “A: increase in NAD^+ levels in cells in response to the test compound, as the percent of NAD^+ levels compared to that in the absence of the test compound” value is 120%.
On to `Cc1cnc(-c2ccc3nc(-c4ccc(F)cc4)c(-c4cccs4)nc3c2)o1` [BC19249], for which the “A: increase in NAD^+ levels in cells in response to the test compound, as the percent of NAD^+ levels compared to that in the absence of the test compound” value amounted to 119%.
For the compound `C#CCNC(=O)c1ccc2nc(-c3ccc(F)cc3)c(-c3cccs3)nc2c1` [BC19189], the “A: increase in NAD^+ levels in cells in response to the test compound, as the percent of NAD^+ levels compared to that in the absence of the test compound” value was 109%.
Regarding `Fc1ccc(-c2nc3ccc(-c4ncco4)cc3nc2-c2ccc(F)cc2)cc1` [BC19145], the “A: increase in NAD^+ levels in cells in response to the test compound, as the percent of NAD^+ levels compared to that in the absence of the test compound” value amounted to 106%.
`Cn1cnnc1-c1ccc2nc(-c3ccc(F)cc3F)c(-c3ccccc3)nc2c1` [BC19444]: the “A: increase in NAD^+ levels in cells in response to the test compound, as the percent of NAD^+ levels compared to that in the absence of the test compound” value is reported as 112%.
Take `Fc1ccc(-c2nc3cc(-c4nnn[nH]4)ccc3nc2C(F)(F)F)cc1` [BC19113]: the “A: increase in NAD^+ levels in cells in response to the test compound, as the percent of NAD^+ levels compared to that in the absence of the test compound” value is listed as 110%.
Take `Cc1noc(-c2ccc3nc(-c4ccc(F)cc4)c(-c4ccc(F)cc4)nc3c2)n1` [BC19193]: the “A: increase in NAD^+ levels in cells in response to the test compound, as the percent of NAD^+ levels compared to that in the absence of the test compound” value came to 109%.
For the compound `COCCNC(=O)c1cnc2nc(-c3ccc(F)cc3)c(-c3ccc(F)cc3)nc2c1` [BC20200], the “A: increase in NAD^+ levels in cells in response to the test compound, as the percent of NAD^+ levels compared to that in the absence of the test compound” value worked out at 132%.
On to `C#CCNC(=O)c1ccc2nc(-c3cccc(N(C)C)c3)c(-c3cccc(N(C)C)c3)nc2c1` [BC19499], for which the “A: increase in NAD^+ levels in cells in response to the test compound, as the percent of NAD^+ levels compared to that in the absence of the test compound” value was determined as 165%.
With `NC(=O)c1ccc2nc(-c3ccc(F)cc3)c(C(F)(F)F)nc2c1` [BC19117] the figure was 116%; with `CS(=O)(=O)c1ccc(-c2nc3ccc(-c4ncco4)cc3nc2-c2ccc(F)cc2)s1` [BC19248], 125%; with `O=C(O)c1ccc2nc(-c3ccc(F)cc3)c(-c3ccc(F)cc3)nc2c1` [BC19118], 108%.
In the case of `CN1CCN(C(=O)c2ccc3nc(-c4ccc(C#N)cc4)c(-c4ccc(C#N)cc4)nc3c2)CC1` [BC19446], the “A: increase in NAD^+ levels in cells in response to the test compound, as the percent of NAD^+ levels compared to that in the absence of the test compound” value is 106%.
